Experimental data as given in PubChem BioAssay AID504741 (National Center for Advancing Translational Sciences (NCATS), 2011).

System: PBS pH 7.4 stability, 37 C, LC-MS/MS, 48 h
Assay: Inhibitors of Bloom's syndrome helicase: PBS Stability Profiling Assay
Settings: at 2 µM; stronger effect = higher value
Description: Survival of cells and the faithful propagation of the genome depend on elaborate mechanisms of detecting and repairing DNA damage. Treatment of advanced cancer relies on radiation therapy or chemotherapy, which kill cancer cells by causing extensive DNA damage. It is often found, that cancer cells develop resistance to therapy through enhanced activity of DNA repair functions; this has led to an increased interest in developing drugs that interfere with DNA repair, which could sensitize cancer cells to conventional therapy. Bloom syndrome helicase (BLM), is important in resolving abnormal DNA structures formed during replication or homologous recombination. Shutting down the expression of BLM leads to chromosomal instability and higher radiation sensitivity in cultured cells. After the completion of a qHTS campaign, secondary assays, and rounds of medicinal chemistry, a compound was identified to be further characterized through in vitro ADME assays. […]
2uM of compound is incubated in PBS buffer at pH 7; the reference compound is procaine. Compounds are incubated at 37 deg C for the pre-determined time periods and the when aliquots are removed. Samples are analyzed with LC-MS/MS.

percent remaining: 100%
Compound: O=C(Nc1ccc(F)c(C(F)(F)F)c1)Nc1nnc(-c2ccncc2)s1
